Source: publication PMC6908736, “Toxic Tau Oligomers Modulated by Novel Curcumin Derivatives” (Scientific Reports, 2019)
Like-named read-outs stand apart in the source and are kept apart here.

What was measured:
[1] = system: human neuroblastoma SH-SY5Y cell line; test: MTS cytotoxicity of curcumin derivatives (dose-response); type: cell-based; design: LogIC50 (cell viability): unit not given here; details: for IC50: Homo sapiens; for LogIC50 (cell viability): n = 3
Text: Six compounds were selected due to their higher activity in modulating toxic TauO and subjected to additional in vitro testing to validate their effects on TauO (Fig. 2B). […] Compounds CL3,8 were obtained through a double aldol condensation on the diacetyl of the appropriate aromatic aldehyde 1[58]. Similarly, HemiC9 was obtained by means of Claisen-Schmidt Aldol condensation of acetone under basic conditions (Fig. 2C)[59]. Heterocyclic derivative CH8 was obtained in a two-step procedure from the corresponding cinnamic acid derivative 2 (Fig. 2D)[60]. […] This method allows the obtainment of target products avoiding the use of protecting groups. One of the criteria used to select these small molecules was evaluating their toxicity profile. The cytotoxicity of each curcumin derivative was examined by exposing the cultured human neuroblastoma SH-SY5Y cell line to a continuous range of small molecule concentrations (0–800 μM) and monitoring cell survival after 24 hours of treatment by an MTS assay. […] Human neuroblastoma SH-SY5Y cells (ATCC CRL-2266) were maintained in DMEM and grown to confluence in 96-well plates as previously described. […] The dose-response curve was used to calculate the concentration of the compound required for 50% inhibition of cell viability (IC50). Cell viability was corrected by the vehicle background. All measurements were performed in triplicate. The cytotoxic effect was determined using MTS assay (G3582, Promega) for assessing cell viability following the manufacturers’ instructions. Optical density (OD) was measured at 490 nm with POLARstar OMEGA plate reader (BMG Labtechnologies). Cell viability was calculated as the percentage of the OD value of treated cells compared to untreated controls, according to the following equation: Viability = (OD SAMPLE/OD CONTROL) × 100%.

[2] = biological target: T1, preformed recombinant tau oligomers (TauO) (Homo sapiens, UniProt P10636); test: Western blot of tau oligomers with and without compounds; type: biochemical; details: curcumin 1:5 and 1:10 molar ratio
T1 construct: made in house
T1 sequence (P10636 1-441 isoform P10636-8): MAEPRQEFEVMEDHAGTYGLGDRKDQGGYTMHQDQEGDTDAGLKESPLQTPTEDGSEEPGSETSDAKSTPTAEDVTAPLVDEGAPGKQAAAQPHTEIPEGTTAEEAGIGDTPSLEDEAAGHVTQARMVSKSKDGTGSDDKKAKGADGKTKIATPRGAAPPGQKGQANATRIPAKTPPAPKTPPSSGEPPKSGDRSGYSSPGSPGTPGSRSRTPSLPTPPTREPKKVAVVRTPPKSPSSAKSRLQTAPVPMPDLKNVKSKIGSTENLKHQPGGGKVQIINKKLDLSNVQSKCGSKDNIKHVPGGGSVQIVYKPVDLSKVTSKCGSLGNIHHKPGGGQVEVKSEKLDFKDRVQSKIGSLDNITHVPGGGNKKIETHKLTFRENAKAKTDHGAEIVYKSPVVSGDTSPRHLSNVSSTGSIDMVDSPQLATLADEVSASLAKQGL
Method: The tau pellet was treated with 8 M urea followed by overnight dialysis against 1X phosphate-buffered saline (PBS) pH 7.4. Tau concentration was measured using bicinchoninic acid protein assay (Pierce BCA Protein Assay Kit, 23225, Thermo Fisher Scientific) and normalized to 1 mg/mL by adding 1X PBS. Aliquots of tau monomer in PBS were stored at -20 °C. Each 300 µL of tau stock (0.3 mg) was added to 700 µL of 1X PBS and incubated for 1 hour on an orbital shaker at room temperature. After shaking, the resulting tau oligomers were purified by fast protein liquid chromatography (FPLC, Superdex 200 Increase 10/300 column, Amersham Biosciences).
(§1) A volume of 100 μL of tau oligomers (1 µg/μL) was incubated with curcumin (1:5 and 1:10 molar ratio) and curcumin derivatives (1:5 molar ratio). Compounds were dissolved in EtOH 75%/DMSO (5:1) at a final concentration of 5 mM and diluted in 1X PBS or ddH2O for incubation or toxicity assay (final concentration 5 μM). Tau oligomers in the presence of the small molecules and controls were incubated on an orbital shaker, without stirring, for 16 hours under oligomerization conditions as previously described.
An amount of 3 µg of each sample were resolved on a pre-cast NuPAGE 4–12% Bis-Tris Gels for SDS-PAGE (NP0335BOX, Invitrogen) and transferred to nitrocellulose membranes. […]

[3] = biological target: T1, preformed recombinant tau oligomers (TauO); test: Direct ELISA, dot blot and filter trap of tau oligomers (T22, TOMA1, Tau 5); type: biochemical; details: curcumin 1:5 and 1:10 molar ratio, vs untreated TauO
Method: as §1
Dot blot assay to detect tau oligomers in the absence or presence of small molecules was performed as previously described. Briefly, 1.5 μl of each end-product reaction was applied onto nitrocellulose membranes and then blocked with 10% nonfat milk in TBS-T overnight at 4 °C. The next day, membranes were probed with the oligomer-specific tau antibodies, T22 (1:250), TOMA1(1:200) and total tau antibody, Tau 5, (1:10000) diluted in 5% nonfat milk for 1 hour at RT. […]
ELISA assay was conducted as previously described. […] Plates were washed three times with TBS-T and developed with 3,3,5,5-tetramethylbenzidine (TMB + Substrate- Chromogen, S1599, Dako) The reaction was stopped using 100 μL of 1 M HCl and absorbance was read at 450 nm using POLARstar OMEGA plate reader. […]

[4] = system: SH-SY5Y cells exposed to TauO; test: MTS assay of TauO-induced toxicity in SH-SY5Y; type: cell-based, human; details: 2 µM TauO, curcumin final concentration 10 μM, 24 hours
Method: Human neuroblastoma SH-SY5Y cells (ATCC CRL-2266) were maintained in DMEM and grown to confluence in 96-well plates as previously described. […] The dose-response curve was used to calculate the concentration of the compound required for 50% inhibition of cell viability (IC50).
Cell viability was corrected by the vehicle background. All measurements were performed in triplicate. The cytotoxic effect was determined using MTS assay (G3582, Promega) for assessing cell viability following the manufacturers’ instructions. Optical density (OD) was measured at 490 nm with POLARstar OMEGA plate reader (BMG Labtechnologies). Cell viability was calculated as the percentage of the OD value of treated cells compared to untreated controls, according to the following equation: Viability = (OD SAMPLE/OD CONTROL) × 100%.

[5] = MTS, 0–800 μM, 24 hours, n = 3, read-out: IC50 (cell viability)

| SMILES | IC50 [1, 5] [µM] | LogIC50 (cell viability) ([1]; MTS, 0–800 μM, 24 hours) | further results |
| --- | --- | --- | --- |
| CC(=O)/C=C/c1ccc(C)cc1 [HemiC9] | 124 | – | – |
| COc1cc(/C=C/C(=O)CC(=O)/C=C/c2ccc(O)c(OC)c2)ccc1O [curcumin] | – | – | aggregation state of TauO by Western blot (T22, Tau 5, Tau 13) [2]: promoting the formation of higher molecular weight tau aggregates; oligomer level, T22 immunoreactivity (direct ELISA and dot blot) [3]: significant decrease in oligomers; cell viability after TauO in the presence of compound [4]: rescued cells from TauO-induced toxicity |
| O=C(/C=C/c1ccc(Cl)cc1)COC(=O)/C=C/c1ccc(Cl)cc1 [Cal7] | – | 2.281 | IC50 ([1]; 24 h, read-out: IC50 (cell viability)): 191 µM |
| O=C(/C=C/c1ccc(F)cc1)C(=O)/C=C/c1ccc(F)cc1 [CL3] | 56.1 | 1.749 | – |
| O=C(/C=C/c1ccccc1Cl)C(=O)/C=C/c1ccccc1Cl [CL8] | 54.5 | 1.737 | – |
| CN(C)c1ccc(/C=C/c2nnc(/C=C/c3ccc(N(C)C)cc3)o2)cc1 [CH8] | 110 | 2.042 | – |
